The values below are quoted from earlier work in patent US7977452B2, “Janus dendrimers and dendrons” (Dendritic Nanotechnologies, Inc., priority 2005, dated 2011).

SMILES strings stand for the structures.

For data set [1], the system named is Mouse.
Data set [2] concerns Mouse. The source holds these as a separate data set.
For data set [3] the following is noted: in vivo.
For data set [4] the following is noted: Gd-chelate PAMAM dendrimer contrast agent.

`CNC(=O)CN(CCN(CCN(CC(=O)[O-])CC(=O)NC)CC(=O)[O-])CC(=O)[O-].[Gd+3]` [Gd-DTPA-BMA]: in the data set on Mouse [1], the LD50 is 34.4 mmol·kg. For the same compound, the “Effective dose (ED)” value in the data set on Mouse [2] was 0.1 mmol·kg.

Turning to `O=C(O)CN(CCN(CC(=O)O)CC(=O)O)CCN(CC(=O)O)CC(=O)O` [DTPA, diethylenetriaminepentaacetic acid], in data set [3], the Excretion result was “Kidney”.

Regarding `CNC[C@H](O)[C@@H](O)[C@H](O)[C@H](O)CO.O=C([O-])CN1CCN(CC(=O)[O-])CCN(CC(=O)O)CCN(CC(=O)[O-])CC1.[Gd+3]` [NMG-Gd-DOTA], the LD50 with Mouse [1] was 11.2 mmol·kg. In the data set on Mouse [2], the “Effective dose (ED)” value was 0.1 mmol·kg.

Regarding `O=C(O)CN(CCN(CC(=O)O)CC(=O)O)CCN(CC(=O)O)CC(=O)O` (Gd complex, metal not drawn) [DTPA, diethylenetriaminepentaacetic acid], in data set [4], the Size is greater than 1 nm.

For the compound `CNC[C@H](O)[C@@H](O)[C@H](O)[C@H](O)CO.CNC[C@H](O)[C@@H](O)[C@H](O)[C@H](O)CO.O=C([O-])CN(CCN(CC(=O)[O-])CC(=O)O)CCN(CC(=O)[O-])CC(=O)O.[Gd+3]` [(NMG)2-Gd-DTPA], the LD50 in the data set with Mouse [1] is 8.2 mmol·kg. Also, the “Effective dose (ED)” value in the data set with Mouse [2] is 0.1 mmol·kg.

For the compound `O=C([O-])CN1CCNCCN(CC(=O)[O-])CCN(CC(=O)[O-])CC1.[Gd+3]` [Gd(III)-DO3A], the LD50 in the data set with Mouse [1] is 7 mmol·kg. The “Effective dose (ED)” value in the data set on Mouse [2] was 0.1 mmol·kg.

With `CC(O)CN1CCN(CC(=O)[O-])CCN(CC(=O)[O-])CCN(CC(=O)[O-])CC1.[Gd+3]` (stereo not drawn) [Gd-HP-DO3A], in the data set on Mouse [1], the LD50 was 12.0 mmol·kg. Besides, the “Effective dose (ED)” value in the data set on Mouse [2] is 0.1 mmol·kg.
